Patent publication US20190153051A1, “FUSION PROTEIN OF C2 DOMAIN AND AKT KINASE DOMAIN FRAGMENT AND USE THEREOF” (Gachon University of Industry-Academic Cooperation …, priority 2017, published 2019)

Legend:
[1] = system: human HepG2 cells; test: Intracellular calcium dynamics with Fura-2 AM in insulin resistance induced cells; assay type: cell-based
Experimental: First, human HepG2 cells were cultured in DMEM (Dulbecco's Modified Eagle Medium) supplemented with 10% fetal bovine serum (FBS), 25 mM glucose, 2 mM L-glutamine, 100 U/Ml of penicillin and 100 μg/Ml of streptomycin. At this time, the culture was performed in a 37° C., 5% CO2 incubator. The cultured cells were distributed in a culture plate at the density of 5.0×10^5 cells/well, followed by further culture for overnight. Palmitic acid (PA) was added to the plate at the concentration of 0, 100, 300 or 500 μM, followed by reaction for 24 hours. Then, the concentration of calcium was investigated by using Fluo-3 AM according to the same conditions and procedures as described in Example 1, and the results are shown in FIG. 2A and FIG. 2B. Intracellular calcium dynamics was confirmed in the fatty liver cell model constructed in vitro by inducing insulin resistance. At this time, the experiment was performed by the same manner under the same conditions as described in Example 3 except that Fura-2 AM was used instead of Fluo-3 AM.

[2] = system: Akt protein; test: Western blotting of Akt protein phosphorylation in insulin-treated HepG2 cells; assay type: cell-based, human; settings: HepG2, PA 24 hours, 100 nM insulin; compared with insulin alone
Experimental: First, male C57BL/6 mice at 8 weeks were divided into the fasted group wherein the mice were fasted for 16 hours and the refed group wherein the mice were fasted for 16 hours and then fed for 4 hours. Each group was sub-divided into the high fat diet group (HFD) and the normal diet group (chow). The liver cells were extracted from the raised mice by the same manner and under the same conditions as described in Example 1. The extracted liver cells were lysed in a lysis buffer containing phosphatase (Sigma-Aldrich, USA) and protease inhibitor (Sigma-Aldrich, USA). Proteins extracted from 2 to 3 mg of the liver tissue were homogenized by using a tissue homogenizer (TissuLyser, Qiagen, USA) for 1.5 minutes at a frequency of 1/30 sec. The homogenized lysate was centrifuged at 12,000 rpm for 15 minutes and the supernatant was obtained. The amount of the extracted protein was quantified by using a protein assay kit (Bio-Rad Laboratories, USA), and at this time BSA was used as a standard sample. 3 mg of the protein was mixed with 6× loading buffer, followed by electrophoresis using 10% SDS-PAGE gel. The electrophoresed protein was transferred onto a polyvinylidene fluoride (PVDF) membrane by using a transfer buffer at 4° C. with 120 V for 1.5 hours. The PVDF membrane on which the protein was transferred was pretreated with a blocking buffer prepared by mixing 5% skim milk with TBS buffer (TBS-T, pH 7.6) supplemented with Tween 20 for 30 minutes, and the membrane was washed with TBS-T. The washed membrane was added with the antibody against Akt (Cell Signaling Technology, USA), Akt(T308) (Cell Signaling Technology, USA), Akt(S473) (Cell Signaling Technology, USA), FOXO3A (Cell Signaling Technology, USA), FOXO3A(S253) (Cell Signaling Technology, USA), GSK-3β (Cell Signaling Technology, USA) or GSK-3β(S9) (Cell Signaling Technology, USA) protein as a primary antibody, followed by reaction at 4° C. for 12 hours. At this time, the antibody against actin (Santa Cruz Biotechnology, USA) protein was used for the control group. Upon completion of the reaction, the secondary antibody corresponding to the primary antibody was added thereto, followed by reaction at room temperature for 30 minutes. The PVDF membrane was washed with TBS-T buffer three times. The washed PVDF membrane was added with ECL solution (Thermo Scientific, USA), followed by image observation.
To investigate the changes in insulin sensitivity when insulin was added to the fatty liver cell model constructed in vitro, the phosphorylations of those proteins that were involved in insulin signaling mechanism were examined. PA was added to the human HepG2 cells prepared in Example 3, followed by reaction for 24 hours. […]

[3] = system: human HepG2 cells; test: Intracellular calcium level with Fluo-3 AM in PA-treated HepG2 cells; assay type: cell-based; settings: PA 0, 100, 300 or 500 μM, 24 hours
Experimental: First, male C57BL/6 mice at 8 weeks (Orient Bio, Korea) were raised in an animal facility of Lee Gil Ya Cancer and Diabetes Institute (Gachon University, Korea). Particularly, the mice were raised in a sterile chamber at the temperature of 23±1° C., with 12 hr/12 hr light/dark cycle, and free dietary environment. At this time, the mice were divided into the fasted group wherein the mice were fasted for 16 hours and the refed group wherein the mice were fasted for 16 hours and then fed for 4 hours. Each group was sub-divided into the high fat diet group (HFD) and the normal diet group (chow). The high fat diet group (HFD) mice were fed with diet containing 60% fat, while the normal diet group (chow) mice were fed with diet containing 10% fat. 8 weeks later, the mice were anesthetized and the liver was perfused by using buffer 1 (142 mM NaCl, 6.7 mM KCl, 10 mM HEPES and 2.5 mM EGTA, pH 7.4). Buffer 1 above was replaced with buffer 2 (0.5 mg/Me collagen, 66.7 mM NaCl, 6.7 mM KCl, 10 mM HEPES and 4.8 mM CaCl, pH 7.6), and then the perfused liver was extracted. The extracted liver was washed and degraded by using Percoll cushion gradient. The degraded cells were suspended and cultured in Hepatozyme-SFM (Gibco-BRL, USA) culture medium supplemented with 10% FBS and 1% antibiotics and antifungal agent. […] The mounted cells were analyzed using a fluorescence microscope (Zeiss Axioplan 2). […]

Q: What does the source list for `CCCCCCCCCCCCCCCC(=O)O` [PA, Palmitic acid]?
A: intracellular calcium concentration [1]: significantly increased; Akt protein phosphorylation [2]: significantly inhibited; concentration of calcium in the cytoplasm [3]: increased
